For data set [1], the target named is T1, 5-HT2A receptors (Homo sapiens, UniProt P28223). In words: Labelling of 5-HT2A receptors in live CHO-FA4-5-HT2A cells (fluorescence microscopy, plate reader). The data set is classed as cell-based. More on the design: expressed in transfected cells; host or cells: CHO-FA4-5-HT2A cells (live). How it is done:
The specificity and sensitivity of the 12i probe towards 5-HT2B receptors over other 5-HT2 receptor subtypes was evaluated by performing similar labelling experiments in CHO cells stably expressing 5-HT2A receptors (CHO-FA4-5-HT2A). […] However, even in these conditions (20 μM concentration of 12i) the signal window over background achieved for 5-HT2A labelling was considerably smaller than that detected in the case of 5-HT2B labelling at a concentration of 12i more than 6 times lower (3 μM) (Fig. 9 and Supplementary Figure S3).
(§1) For cell labelling studies, cells were plated onto 96-well plates (Cell Carrier; Perkin-Elmer, Waltham, MA, USA) pre-treated with poly-D-lysine hydrobromide 0.1 mg/mL (Sigma Aldrich, Spain) at a density of 10000 cells/well and cultured for 24 h. […] Fluorescence images were acquired using an Operetta high content imaging instrument (Perkin-Elmer, Waltham, MA, USA) at 20x and 40x magnification, at excitation wavelengths of 520–550 nm and emission wavelengths of 560–630 nm (standard 5-TAMRA filter set) for compound 12i, and excitation wavelengths of 360–400 nm and emission wavelengths of 410–480 nm for Hoechst 33342 (standard Hoechst 33342 filter set).
The fluorescence intensity of the cells labelled with compound 12i was quantified by image analysis of the acquired images using Harmony v3.5 software (Perkin-Elmer). […]

Data set [2] has as its target T2, 5-HT2B receptors (Homo sapiens, UniProt P41595). In words: Functional assay of IPs accumulation at human 5-HT2B receptors. The data set is classed as cell-based. How it is done: After 24 h, growth medium was replaced by serum-free medium containing 10 μCi/mL [^3H]myo-inositol (20.3 Ci/mmol, Perkin-Elmer) for 24 h. […] After the incubation time, assay buffer was discarded and 200 μL of 100 mM formic acid was added to the cells for 30 min at 4 °C and 20 μL of the lysate were transferred to a flexiplate plate (Perkin-Elmer, Waltham, MA, USA) together with 80 μL of a solution of RNA Binding YSi SPA Beads (Perkin-Elmer, Waltham, MA, USA) to measure accumulation of [^3H]IPs (IP1,IP2, and IP3, collectively referred to as IPs).

Data set [3] deals with T3, human 5-HT2C receptors (Homo sapiens, UniProt P28335).
T3 construct: expressed in transfected cells; host or cells: HeLa-5-HT2C cells (membranes)
T3 sequence (P28335 33-458): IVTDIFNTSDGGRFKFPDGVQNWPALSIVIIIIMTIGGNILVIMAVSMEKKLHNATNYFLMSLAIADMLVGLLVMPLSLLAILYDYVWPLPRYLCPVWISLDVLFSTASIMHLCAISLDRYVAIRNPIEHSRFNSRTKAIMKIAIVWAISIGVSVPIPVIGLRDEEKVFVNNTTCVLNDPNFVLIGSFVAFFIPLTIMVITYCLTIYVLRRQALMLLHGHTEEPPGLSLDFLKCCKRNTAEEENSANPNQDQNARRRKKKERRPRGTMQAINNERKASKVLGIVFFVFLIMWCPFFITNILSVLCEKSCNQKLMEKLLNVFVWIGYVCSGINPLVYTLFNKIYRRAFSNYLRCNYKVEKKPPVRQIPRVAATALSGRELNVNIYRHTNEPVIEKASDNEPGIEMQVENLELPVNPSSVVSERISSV
In words: Radioligand competition binding assay at human 5-HT2C receptors.

In data set [4] the target is T2, 5-HT2B receptors. The data set is classed as cell-based. The note with it: 3 μM, 10 min at 37 °C; image analysis and plate reader; p < 0.001. How it is done: Having finished the preliminary photophysical and pharmacological characterization of the fluorescent derivatives 12a–i, their potential to specifically label 5-HT2B receptors in live cells was evaluated. Chinese hamster ovary K1 (CHO-K1) cells and CHO-K1 cells stably expressing the human serotonin 5-HT2B receptor (CHO-K1-5-HT2B), growing in 96-well plates, were incubated with at least three different concentrations of each compound for varying times and, after compound removal and washing of the cells, plates were subjected to fluorescence microscopy using a high content imaging instrument and the appropriate excitation and emission filter set for each compound.
as §1, with “set). […]” for “set).”

The target of data set [5] is T1, 5-HT2A receptors. In words: Radioligand competition binding assay at human 5-HT2A receptors. More on the design: expressed in transfected cells; host or cells: CHO-FA4-5-HT2A cells (membranes). For orientation: Displacement assays read how much labelled ligand stays bound in the presence of the test substance.
Data set [6] deals with T2, 5-HT2B receptors. In words: Radioligand competition binding assay at human 5-HT2B receptors.
Data set [7] in a line: Absorption and emission spectra (photophysical properties). The data set is classed as physicochemical. To be noted: 10 μM solutions. How it is done:
The absorption and emission spectra of the fluorescent 5-HT2 ligands (10 and 12) were determined on 10 μM solutions. The most relevant fluorescent properties are collected in Fig. 5. All of the synthesized derivatives emitted fluorescence in the visible region of the spectrum, with selected fluorescent tags (Fig. 4) providing distinctive properties and excitation wavelengths. The excitation wavelengths varied from 305 to 555 nm, whereas those for emission varied from 398 to 580 nm.

In data set [8] the test system is tumor necrosis factor alpha (TNF-α). The note with it: primary aortic smooth muscle cells and animal models; cited from earlier work.

T2 sequence (P41595 whole entry): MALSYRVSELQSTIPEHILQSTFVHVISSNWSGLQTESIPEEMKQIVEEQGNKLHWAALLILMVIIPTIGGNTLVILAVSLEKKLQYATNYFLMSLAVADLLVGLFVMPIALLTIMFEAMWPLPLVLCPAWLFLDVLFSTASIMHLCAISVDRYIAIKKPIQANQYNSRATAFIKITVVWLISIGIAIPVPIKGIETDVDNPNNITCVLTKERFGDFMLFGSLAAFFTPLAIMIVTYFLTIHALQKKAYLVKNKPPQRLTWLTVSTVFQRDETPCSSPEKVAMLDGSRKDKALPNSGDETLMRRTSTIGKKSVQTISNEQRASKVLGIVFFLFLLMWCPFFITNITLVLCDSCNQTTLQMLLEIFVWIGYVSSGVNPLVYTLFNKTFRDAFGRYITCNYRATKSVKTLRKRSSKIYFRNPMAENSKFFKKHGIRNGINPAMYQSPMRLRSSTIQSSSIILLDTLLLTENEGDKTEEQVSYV
T1 sequence (P28223 whole entry): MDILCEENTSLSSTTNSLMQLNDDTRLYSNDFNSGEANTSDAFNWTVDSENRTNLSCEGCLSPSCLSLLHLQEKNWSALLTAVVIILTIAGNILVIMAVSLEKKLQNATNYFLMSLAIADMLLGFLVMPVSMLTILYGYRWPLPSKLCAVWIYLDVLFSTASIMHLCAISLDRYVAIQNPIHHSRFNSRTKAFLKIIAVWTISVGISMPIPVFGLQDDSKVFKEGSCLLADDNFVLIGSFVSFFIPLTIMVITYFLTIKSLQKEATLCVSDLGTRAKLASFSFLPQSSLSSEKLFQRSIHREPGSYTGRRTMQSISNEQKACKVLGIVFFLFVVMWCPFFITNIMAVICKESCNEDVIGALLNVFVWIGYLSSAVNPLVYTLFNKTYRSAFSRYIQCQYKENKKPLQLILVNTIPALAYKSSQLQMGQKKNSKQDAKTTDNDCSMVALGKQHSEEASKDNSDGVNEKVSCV

`CCN(CC)c1ccc2c(-c3ccccc3C(=O)NCCC(=O)NCCC(=O)NCCCOCCOCCOCCCNC(=O)CCCOc3cc(I)c(OC)cc3CC(C)N)c3ccc(=[N+](CC)CC)cc-3oc2c1` (stereo not shown) [12i, N-(9-(2-((26-(2-(2-aminopropyl)-5-iodo-4-methoxyphenoxy)-3,7,23-trioxo-12,15,18-trioxa-4,8,22-triazahexacosyl)carbamoyl)phenyl)-6-(diethylamino)-3H-xanthen-3-ylidene)-N-ethylethanaminium] gave a melting point of 151 to 153 °C. In addition, the “specific labelling of 5-HT2A receptors in CHO-FA4-5-HT2A cells” value in data set [1] (3 μM) is recorded as “no statistically significant specific labelling”. Besides, the “specific labelling of 5-HT2A receptors in CHO-FA4-5-HT2A cells” value in [1] (20 μM) is reported as “certain specific labelling”. This compound also displayed an EC50 in data set [2] of 225 nM. Besides, in data set [3], affinity was put at a Ki of 994 nM. Further, the “fluorescence intensity of CHO-K1-5-HT2B cell wells versus control CHO-K1 cell wells” value in data set [4] is “clearly superior”. Besides, affinity in data set [5] was put at a Ki of 1220 nM. Moreover, the affinity in [6] corresponds to a Ki of 262 nM. For the same compound, in data set [7], the “Δλ (Stokes shift)” value is given as 25 nm, the εmax turned out to be 78828 M⁻¹ cm⁻¹, the “λmax Abs” value is given as 555 nm and the “λmax Em” value is given as 580 nm.
`COc1cc(CC(C)N)c(OC)cc1I` (stereo not shown) [DOI, 1-(2,5-Dimethoxy-4-iodophenyl)-propan-2-amine, reference compound]: the EC50 in [2] came to 11.7 nM. In addition, the Ki in data set [3] was found to be 18.2 nM; in data set [6], 48.2 nM. Further, the “potency of blockade of the pro-inflammatory effects of TNF-α” value in [8] is given as “≈ 15 pM”.

For orientation: EC50 means the midpoint of the concentration-response curve. A high value points to lower potency in that assay. In general, melting point refers to the temperature, or range, at which the solid turns liquid. By Ki is commonly meant the dissociation constant of the complex between target and ligand, obtained from inhibition or displacement.

Values taken from publication PMC5589878, “Development of Fluorescent Probes that Target Serotonin 5-HT2B Receptors” (Scientific Reports, 2017).
